Here are results for one compound from patent US8435752B2, “Gene polymorphisms predictive for dual TKI therapy” (University of Southern California, priority 2007, dated 2013).

For the assay, the system named is advanced or metastatic gastric cancer patients. Conditions: for median OS: Experiment No. 1, p=0.07; for OS / response rates: Experiment No. 2; for OS: p=0.04; for response rates: p<0.01.

SMILES strings stand for the structures. Like-named read-outs stand apart in the source and are kept apart here.

On to `CS(=O)(=O)CCNCc1ccc(-c2ccc3ncnc(Nc4ccc(OCc5cccc(F)c5)c(Cl)c4)c3c2)o1` [lapatinib, Lapatinib], for which the “median OS” value was determined as 10 months (A/A genotype of IL-8 T251A polymorphism, blood samples from 40 patients); 3 months (first listed of the other 2 genotypes of IL-8 T251A); 3 months (second listed of the other 2 genotypes of IL-8 T251A). In addition, the OS (IL-8 T251A A/A, blood samples from 42 patients) is on record as 10 months; the OS (IL-8 T251A T/A) is reported as 5 months; the OS (IL-8 T251A T/T) is 3 months. The response rates result is, setting by setting: (patients with A allele of IL-8 T251A) “better response rates”; (patients with T allele of VEGF C936T) “better response rates”. Also, the “median overall survival (OS)” value (comparison group to higher HER2 gene expression (lower HER2), p=0.005) was 3 months; the “median overall survival (OS)” value (comparison group to lower IL-8 gene expression (higher IL-8), p=0.03) was found to be 3 months; the “median overall survival (OS)” value (patients with higher intratumoral HER2 gene expression, p=0.005 vs lower) was found to be 6 months; the “median overall survival (OS)” value (patients with lower intratumoral IL-8 gene expression, p=0.03 vs higher) turned out to be 6 months.
